Paper PMC4987650, “Structural Investigation of Park’s Nucleotide on Bacterial Translocase MraY: Discovery of Unexpected MraY Inhibitors” (Scientific Reports, 2016)

Target: T1, MraYBS (Bacillus subtilis, UniProt Q03521)
T1 construct: MBP; made in house
T1 sequence (Q03521 1-324): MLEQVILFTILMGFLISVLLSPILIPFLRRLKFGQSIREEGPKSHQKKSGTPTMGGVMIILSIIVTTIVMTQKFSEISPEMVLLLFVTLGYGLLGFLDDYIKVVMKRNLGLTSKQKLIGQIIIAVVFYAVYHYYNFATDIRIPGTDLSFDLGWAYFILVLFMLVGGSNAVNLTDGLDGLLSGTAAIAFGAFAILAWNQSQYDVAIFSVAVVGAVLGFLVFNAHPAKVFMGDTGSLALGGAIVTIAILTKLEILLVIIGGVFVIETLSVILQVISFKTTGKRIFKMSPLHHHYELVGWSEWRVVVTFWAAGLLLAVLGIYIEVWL
Assay: Biolayer interferometry-based (BLI) binding assay
Description: MraYBS binding was measured in a biolayer interferometry-based binding assay on Octet Red96® instrument (ForteBio, Inc.). The biotinylation of MraYBS was performed with using EZ-Link® Sulfo-NHS-LC-LC-Biotin Kit (Thermo Fisher Scientific, Inc.). In general, MraYBS (1.7 mg/mL) in 50 μL reaction buffer (0.01 M HEPES pH 7.4, 0.15 M NaCl, 0.005% v/v Surfactant P20), was added by the sulfo-NHS-LC-LC-biotin reagent (1 mM, 1 μL). After incubating for 30 minutes at room temperature, the biotinylated-MraYBS was purified by a Zeba^TM Spin Desalting Columns, 7K MWCO (Thermo Fisher Scientific, Inc.), and the buffer was changed to the binding buffer (30 mM Tris, 10 mM MgCl2, 10 mM NaCl, 0.1 mM Tween-20, pH 8.0) during the purification. Comparing to the non-biotinylated-MraYBS, the biotinylated-MraYBS remains 62% activity measured by the HPLC-based MraY functional assay in 1 h reaction. The biotinylated MraYBS was then immobilized to Super Streptavidin (SSA) Octet tips (ForteBio, Inc.) for reaching a fixed signal of 3 nm. Before the assay starting, the MraYBS-labeled SSA sensors were pre-soaked in binding buffer for 30 min. The association of Park’s analogues with MraYBS were measured by incubating MraYBS-labeled SSA sensors in binding buffer containing various concentrations of samples in Octet Red system. The dissociation was monitored by moving the ligand biosenors from the analyte solution to binding buffer. The dissociation constants (KD) were obtained by nonlinear regression analysis using the specific binding model with the GraphPad Prism program (GraphPad Software, San Diego, CA).

CC(=O)N[C@H]1[C@@H](OP(=O)(O)OP(=O)(O)OC[C@H]2O[C@@H](n3ccc(=O)[nH]c3=O)[C@H](O)[C@@H]2O)O[C@H](CO)[C@@H](O)[C@@H]1O[C@H](C)C(=O)N[C@@H](C)C(=O)N[C@H](CCC(=O)N[C@@H](CCCCNC(=O)CCCCCNc1ccc([N+](=O)[O-])c2nonc12)C(=O)N[C@H](C)C(=O)N[C@H](C)C(=O)O)C(=O)O [Compound 6, NBD-Park’s nucleotide]
Kd: 127 µM
